Assay results: patent publication US7879881B2, “Piperidinyl compounds that selectively bind integrins” (Janssen Pharmaceutica NV, priority 2002, dated 2011)
Where two headings read alike, the source gives them in different places.

What was measured:
GP IIb/IIIa = GP IIb/IIIa (Homo sapiens, UniProt P05106+P08514); assay: In Vitro Solid Phase Purified GP IIb/IIIa Binding Assay (biotinylated fibrinogen); details: biotinylated fibrinogen binding to immobilized purified GP IIb/IIIa, mean ± spread
Protocol: In Vitro Solid Phase Purified GP IIb/IIIa Binding Assay
The plate was covered and incubated overnight at 4° C. The GP IIb/IIIa solution was discarded and 150 μL of 5% BSA was added and incubated at RT for 1-3 h. The plate was washed extensively with modified Tyrodes buffer. Biotinylated fibrinogen (25 μL/well) at 2× final concentration was added to the wells that contain the test compounds (25 μL/well). The plate was covered and incubated at RT for 2-4 h. Twenty minutes prior to incubation completion, one drop of Reagent A (VectaStain ABC Horseradish Peroxidase kit, Vector Laboratories, Inc.) and one drop Reagent B were added with mixing to 5 mL modified Tyrodes buffer mix and let stand. The ligand solution was discarded and the plate washed (5×200 μL/well) with modified Tyrodes buffer. […] The Vecta Stain solution was discarded and the wells washed (5×200 μL/well) with modified Tyrodes buffer. Developing buffer (10 mL of 50 mM citrate/phosphate buffer @ pH 5.3, 6 mg o-phenylenediamine, 6 μL 30% H2O2; 50 μL/well) was added and incubated at RT for 3-5 min and then 2 N H2SO4 (50 μL/well) was added.

human purified αVβ5 = molecular target: T1, human purified αVβ5 (Homo sapiens, UniProt P06756+P18084); assay: In Vitro Solid Phase Purified αcβ5 Binding Assay (vitronectin/αVβ5); details: vitronectin binding to immobilized purified human αVβ5, mean ± spread
T1 construct: purchased Chemicon International, Inc
Protocol: (§1) Human αvβ3 (Chemicon International Inc., Temecula, Calif.), at a concentration of 1 μg/ml dissolved in Tris buffer (20 mM Tris, 1 mM CaCl2, 1 mM MgCl2, 10 μM MnCl2, 150 mM NaCl), was immobilized on Immulon 96 well plates (Dynex Technologies, Chantilly, Va.) overnight at 4° C. Plates were washed and treated with blocking buffer (3% BSA in Tris buffer) for 2 h at 37° C. Plates were then rinsed 2 times with assay buffer comprised of Tris buffer. Synthesized compounds were added to wells in duplicate immediately prior to the addition of 2 nM vitronectin (Sigma, St. Louis, Mo.). Following a 3 hour incubation at 37° C., plates were washed 5 times in assay buffer. An anti-human vitronectin IgG rabbit polyclonal antibody (Calbiochem, San Diego, Calif.) was added (1:2000) and plates were incubated for 1 hour at room temperature. VectaStain ABC peroxidase kit reagents (Vector Laboratories, Burlingame, Calif.) employing a biotin labeled anti-rabbit IgG, were utilized for detection of bound antibody. Plates were read at 490 nm on a Molecular Devices (Sunnyvale, Calif.) microplate reader.
In Vitro Solid Phase Purified αcβ5 Binding Assay
All other aspects of the assay including buffers, reagents and incubation times remain unchanged.

Human αvβ3 = molecular target: T2, Human αvβ3 (Homo sapiens, UniProt P05106+P06756); assay: In Vitro Solid Phase Purified αvβ3 Binding Assay (vitronectin/αvβ3); details: vitronectin binding to immobilized purified human αvβ3, mean ± spread
T2 construct: purchased Chemicon International Inc., Temecula, Calif
Protocol: In Vitro Solid Phase Purified αvβ3 Binding Assay
as §1

GP IIb/IIIa, sequence (P08514 32-887 limits assumed): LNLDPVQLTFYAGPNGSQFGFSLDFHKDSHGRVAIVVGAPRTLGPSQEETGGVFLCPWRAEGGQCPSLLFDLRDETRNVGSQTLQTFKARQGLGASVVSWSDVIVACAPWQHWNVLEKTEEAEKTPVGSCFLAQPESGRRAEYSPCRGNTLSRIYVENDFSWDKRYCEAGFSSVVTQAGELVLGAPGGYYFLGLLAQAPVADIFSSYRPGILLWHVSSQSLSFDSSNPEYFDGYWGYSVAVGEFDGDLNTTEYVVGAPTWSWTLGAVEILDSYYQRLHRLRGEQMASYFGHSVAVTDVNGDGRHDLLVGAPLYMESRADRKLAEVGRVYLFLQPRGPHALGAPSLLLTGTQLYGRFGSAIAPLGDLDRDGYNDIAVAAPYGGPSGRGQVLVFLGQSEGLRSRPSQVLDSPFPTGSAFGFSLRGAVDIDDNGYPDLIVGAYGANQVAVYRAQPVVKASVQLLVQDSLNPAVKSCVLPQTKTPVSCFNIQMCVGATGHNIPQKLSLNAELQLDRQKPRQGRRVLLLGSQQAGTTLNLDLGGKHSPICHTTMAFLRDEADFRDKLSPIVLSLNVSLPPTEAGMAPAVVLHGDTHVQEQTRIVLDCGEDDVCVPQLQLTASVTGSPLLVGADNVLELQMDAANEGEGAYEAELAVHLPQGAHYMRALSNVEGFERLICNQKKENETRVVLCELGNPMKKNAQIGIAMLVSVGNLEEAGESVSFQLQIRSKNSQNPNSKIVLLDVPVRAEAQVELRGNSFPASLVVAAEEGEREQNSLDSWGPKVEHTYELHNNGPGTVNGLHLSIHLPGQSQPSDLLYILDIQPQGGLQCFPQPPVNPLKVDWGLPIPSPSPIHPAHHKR
GP IIb/IIIa, sequence (P08514 891-1039 partner limits assumed): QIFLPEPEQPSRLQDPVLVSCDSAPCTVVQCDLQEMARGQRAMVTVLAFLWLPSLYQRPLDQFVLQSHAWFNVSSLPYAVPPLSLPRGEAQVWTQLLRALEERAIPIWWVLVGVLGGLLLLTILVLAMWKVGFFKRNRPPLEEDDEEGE
GP IIb/IIIa, sequence (P05106 27-788): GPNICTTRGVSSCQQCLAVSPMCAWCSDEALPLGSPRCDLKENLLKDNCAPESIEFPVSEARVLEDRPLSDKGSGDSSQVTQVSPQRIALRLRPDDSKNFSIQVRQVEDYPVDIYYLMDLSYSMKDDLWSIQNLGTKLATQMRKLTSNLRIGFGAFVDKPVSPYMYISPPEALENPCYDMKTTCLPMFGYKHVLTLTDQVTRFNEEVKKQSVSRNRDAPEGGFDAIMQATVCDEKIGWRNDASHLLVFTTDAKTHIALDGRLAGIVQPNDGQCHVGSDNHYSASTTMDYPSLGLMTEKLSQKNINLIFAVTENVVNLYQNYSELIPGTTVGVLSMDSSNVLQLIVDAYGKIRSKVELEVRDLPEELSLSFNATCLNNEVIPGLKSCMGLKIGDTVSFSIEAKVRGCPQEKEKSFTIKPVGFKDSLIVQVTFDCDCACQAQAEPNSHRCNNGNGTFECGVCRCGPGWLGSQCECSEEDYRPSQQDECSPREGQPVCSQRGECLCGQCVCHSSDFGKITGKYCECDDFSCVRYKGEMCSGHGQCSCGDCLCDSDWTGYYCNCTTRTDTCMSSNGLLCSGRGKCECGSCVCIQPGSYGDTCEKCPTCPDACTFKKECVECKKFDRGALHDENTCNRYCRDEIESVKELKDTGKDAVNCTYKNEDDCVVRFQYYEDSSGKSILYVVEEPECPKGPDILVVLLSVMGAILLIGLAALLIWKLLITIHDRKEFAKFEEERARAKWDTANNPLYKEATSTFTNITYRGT
T1 sequence (P06756 31-889 limits assumed): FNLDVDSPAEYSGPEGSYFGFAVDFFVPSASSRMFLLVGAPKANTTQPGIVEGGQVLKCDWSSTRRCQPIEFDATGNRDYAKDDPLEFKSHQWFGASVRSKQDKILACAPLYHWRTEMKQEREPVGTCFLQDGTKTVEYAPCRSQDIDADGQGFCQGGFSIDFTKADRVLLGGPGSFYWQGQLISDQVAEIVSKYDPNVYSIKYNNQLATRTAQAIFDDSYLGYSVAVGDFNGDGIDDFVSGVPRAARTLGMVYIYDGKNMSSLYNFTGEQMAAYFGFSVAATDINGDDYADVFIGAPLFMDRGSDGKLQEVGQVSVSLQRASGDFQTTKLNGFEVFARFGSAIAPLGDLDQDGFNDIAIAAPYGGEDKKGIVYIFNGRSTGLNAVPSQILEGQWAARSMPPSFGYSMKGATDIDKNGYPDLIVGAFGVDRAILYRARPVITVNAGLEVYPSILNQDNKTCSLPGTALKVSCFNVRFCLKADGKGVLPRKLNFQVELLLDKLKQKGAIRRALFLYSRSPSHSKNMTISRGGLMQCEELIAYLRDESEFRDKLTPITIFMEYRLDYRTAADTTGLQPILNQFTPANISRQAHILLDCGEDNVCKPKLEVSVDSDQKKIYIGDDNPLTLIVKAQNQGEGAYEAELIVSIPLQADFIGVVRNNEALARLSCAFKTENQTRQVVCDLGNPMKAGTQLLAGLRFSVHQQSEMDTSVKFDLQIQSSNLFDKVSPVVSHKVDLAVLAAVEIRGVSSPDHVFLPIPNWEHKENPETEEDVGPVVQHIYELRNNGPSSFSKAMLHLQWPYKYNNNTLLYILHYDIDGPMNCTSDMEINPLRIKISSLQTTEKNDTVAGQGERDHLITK
T1 sequence (P06756 891-1048 partner limits assumed): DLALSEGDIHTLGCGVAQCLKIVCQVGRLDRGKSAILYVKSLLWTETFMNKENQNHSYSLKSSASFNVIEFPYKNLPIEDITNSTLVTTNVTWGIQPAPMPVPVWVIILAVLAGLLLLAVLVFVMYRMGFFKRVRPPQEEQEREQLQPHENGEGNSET
T1 sequence (P18084 24-799): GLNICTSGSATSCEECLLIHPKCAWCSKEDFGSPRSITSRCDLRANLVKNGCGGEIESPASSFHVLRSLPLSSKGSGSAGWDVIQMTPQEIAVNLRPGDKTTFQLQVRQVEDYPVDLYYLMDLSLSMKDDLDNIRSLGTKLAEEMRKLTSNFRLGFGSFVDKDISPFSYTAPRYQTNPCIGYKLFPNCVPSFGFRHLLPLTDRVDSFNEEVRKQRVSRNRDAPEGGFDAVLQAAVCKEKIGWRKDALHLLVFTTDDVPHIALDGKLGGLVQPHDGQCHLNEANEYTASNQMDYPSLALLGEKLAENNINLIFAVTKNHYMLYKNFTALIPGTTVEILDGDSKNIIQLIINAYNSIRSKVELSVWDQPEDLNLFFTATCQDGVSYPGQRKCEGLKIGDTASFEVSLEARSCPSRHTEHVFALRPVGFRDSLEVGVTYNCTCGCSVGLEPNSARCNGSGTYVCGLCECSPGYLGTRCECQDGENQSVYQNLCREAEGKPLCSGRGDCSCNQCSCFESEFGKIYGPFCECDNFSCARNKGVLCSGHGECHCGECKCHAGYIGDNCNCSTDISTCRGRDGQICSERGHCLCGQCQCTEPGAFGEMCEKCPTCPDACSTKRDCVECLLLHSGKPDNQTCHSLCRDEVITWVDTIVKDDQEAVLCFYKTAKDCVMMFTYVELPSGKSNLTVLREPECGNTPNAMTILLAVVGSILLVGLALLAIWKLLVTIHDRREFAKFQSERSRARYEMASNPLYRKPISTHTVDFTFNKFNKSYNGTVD
T2 sequence (P06756 31-889 limits assumed): as the sequence (P06756 31-889 limits assumed) above
T2 sequence (P06756 891-1048 partner limits assumed): as the sequence (P06756 891-1048 partner limits assumed) above
T2 sequence (P05106 27-788): as the sequence (P05106 27-788) above

Row | IC50 (GP IIb/IIIa; read-out: αIIbβ3 IC50) [µM] | IC50 (human purified αVβ5; read-out: αvβ5 IC50) [µM] | IC50 (Human αvβ3; read-out: αvβ3IC50) [µM] | SMILES | IC50 (GP IIb/IIIa; αIIbβ3 IC50 (uM)) [µM] | IC50 (human purified αVβ5; αvβ5 IC50 (uM)) [µM] | IC50 (Human αvβ3; αvβ3IC50 (uM)) [µM]
1 | 5.04 | 0.108 ± 0.034 | 0.0361 ± 0.0001 | O=C(O)CC(c1ccc2c(c1)OCO2)C1CCN(C(=O)CCc2ccc3c(n2)NCCC3)CC1 (stereo not drawn) [Cpd 14, β-(1,3-benzodioxol-5-yl)-1-[1-oxo-3-(5,6,7,8-tetrahydro-1,8-naphthyridin-2-yl)propyl]-4-piperidinepropanoic acid] |  |  | 
2 | > 50 | 0.0482 ± 0.0028 | 0.0317 ± 0.0147 | O=C(O)CC(CC1CCN(C(=O)CCc2ccc3c(n2)NCCC3)CC1)c1cccc(F)c1 (single isomer, unassigned) [Cpd 30b, β-(3-fluorophenyl)-1-[1-oxo-3-(5,6,7,8-tetrahydro-1,8-naphthyridin-2-yl)propyl]-4-piperidinebutanoic acid] |  |  | 
3 | 0.94 ± 0.05 | 0.138 ± 0.0415 | 0.0298 ± 0.0137 | O=C(O)CC(CCC1CCN(C(=O)c2cccc(NC3=NCCCC3)c2)CC1)c1ccc2c(c1)OCO2 (stereo not drawn) [Cpd 53, β-(1,3-benzodioxol-5-yl)-1-[3-[(3,4,5,6-tetrahydro-2-pyridinyl)amino]benzoyl]-4-piperidinepentanoic acid] |  |  | 
4 | > 50 | > 1 | > 0.5 | CC(C)(C)OC(=O)CCCC1CCN(C(=O)CCc2ccc3c(n2)NCCC3)CC1 [Cpd 70, 4-[1-(3-5,6,7,8-Tetrahydro-[1,8]naphthyridin-2-yl-propionyl)-piperidin-4-yl]-butyric acid tert-butyl ester] |  |  | 
5 | 0.48 ± 0.01 | 0.169 ± 0.019 | 0.003 ± 0.0006 | O=C(O)CC(CCC1CCN(C(=O)CCc2ccc3c(n2)NCCC3)CC1)c1cnc2ccccc2c1 (stereo not drawn) [Cpd 51, β-[2-[1-[1-oxo-3-(5,6,7,8-tetrahydro-1,8-naphthyridin-2-yl)propyl]-4-piperidinyl]ethyl]-3-quinolinepropanoic acid] |  |  | 
6 | 24.7 | 0.026 ± 0.003 | 0.0057 ± 0.0001 | CCNc1cccc(C(CC(=O)O)CC2CCN(C(=O)CCc3ccc4c(n3)NCCC4)CC2)c1 (racemic) [Cpd 78, 3-(3-Ethylamino-phenyl)-4-[1-(3-5,6,7,8-tetrahydro-[1,8]naphthyridin-2-yl-propionyl)-piperidin-4-yl]-butyric acid] |  |  | 
7 | 22.7 | 0.0101 ± 0.0017 | 0.0067 ± 0.0002 | O=C(O)CC(CC1CCN(CCCc2ccc3c(n2)NCCC3)CC1)c1cccc(F)c1 (racemic) [Cpd 81, 3-(3-Fluoro-phenyl)-4-[1-(3-5,6,7,8-tetrahydro-[1,8]naphthyridin-2-yl-propyl]-piperidin-4-yl]-butyric acid] |  |  | 
8 | 5.92 | 0.5 | 0.0277 ± 0.0053 | O=C(O)CC(CC1CCN(C(=O)CCCc2ccc3c(n2)NCCC3)CC1)c1ccc2c(c1)OCO2 (stereo not drawn) [Cpd 26, β-(1,3-benzodioxol-5-yl)-1-[1-oxo-4-(5,6,7,8-tetrahydro-1,8-naphthyridin-2-yl)butyl]-4-piperidinebutanoic acid] |  |  | 
9 | > 50 | > 1 | > 0.5 | COC(=O)CCCC1CCN(C(=O)CCc2ccc3c(n2)NCCC3)CC1 [Cpd 73, 4-[1-(3-5,6,7,8-Tetrahydro-[1,8]naphthyridin-2-yl-propionyl)-piperidin-4-yl]-butyric acid methyl ester] |  |  | 
10 | 4.03 ± 0.43 | 0.0334 ± 0.0063 | 0.0019 ± 0.0002 | O=C(O)CC(c1ccc2c(c1)OCO2)C1CCN(C(=O)CCCc2ccc3c(n2)NCCC3)CC1 (stereo not drawn) [Cpd 15, β-(1,3-benzodioxol-5-yl)-1-[1-oxo-4-(5,6,7,8-tetrahydro-1,8-naphthyridin-2-yl)butyl]-4-piperidinepropanoic acid] |  |  | 
11 |  |  |  | O=C(O)CC(CC1CCN(C(=O)CCc2ccc3c(n2)NCCC3)CC1)c1cnc2c(c1)CCCC2 (racemic) [Cpd 57, 5,6,7,8-tetrahydro-β-[[1-[1-oxo-3-(5,6,7,8-tetrahydro-1,8-naphthyridin-2-yl)propyl]-4-piperidinyl]methyl]-3-quinolinepropanoic acid] | 3.04 ± 0.55 | 0.0109 ± 0.0042 | 0.0016 ± 0.0007
12 | 5.38 | 0.0397 ± 0.0121 | 0.0018 ± 0.0003 | COc1cc(C(CC(=O)O)CC2CCN(C(=O)CCc3ccc4c(n3)NCCC4)CC2)ccc1O (racemic) [Cpd 76, 3-(4-Hydroxy-3-methoxy-phenyl)-4-[1-(3-5,6,7,8-tetrahydro-[1,8]naphthyridin-2-yl-propionyl)-piperidin-4-yl]-butyric acid] |  |  | 
13 | 3.84 | 0.0346 ± 0.0002 | 0.0008 | O=C(O)CC(CC1CCN(C(=O)CCc2ccc3c(n2)NCCC3)CC1)c1ccc2c(c1)OCCO2 (racemic) [Cpd 65] |  |  | 
14 | 1.8 | 0.995 | 0.142 ± 0.027 | O=C(O)CC(CCC1CCN(C(=O)CCc2ccc3c(n2)NCCC3)CC1)c1ccc2c(c1)OCO2 (stereo not drawn) [Cpd 20, β-(1,3-benzodioxol-5-yl)-1-[1-oxo-3-(5,6,7,8-tetrahydro-1,8-naphthyridin-2-yl)propyl]-4-piperidinepentanoic acid] |  |  | 
15 | 19.3 | 0.387 | 0.307 | O=C(O)CC(c1ccc2c(c1)OCO2)C1CCN(C(=O)CCCNc2ccccn2)CC1 (stereo not drawn) [Cpd 24, β-(1,3-benzodioxol-5-yl)-1-[1-oxo-4-(2-pyridinylamino)butyl]-4-piperidinepropanoic acid] |  |  | 
16 | 11.1 ± 3.4 | 0.036 ± 0.0133 | 0.0032 ± 0.0006 | O=C(O)CC(CC1CCN(C(=O)CCc2ccc3c(n2)NCCC3)CC1)c1ccccc1 (stereo not drawn) [Cpd 13, 1-[1-oxo-3-(5,6,7,8-tetrahydro-1,8-naphthyridin-2-yl)propyl]-β-phenyl-4-piperidinebutanoic acid] |  |  | 
17 | 35.6 | > 1 | 0.413 | CCOC(=O)CCCC1CCN(C(=O)CCc2ccc3c(n2)NCCC3)CC1 [Cpd 68, 4-[1-(3-5,6,7,8-Tetrahydro-[1,8]naphthyridin-2-yl-propionyl)-piperidin-4-yl]-butyric acid ethyl ester] |  |  | 
18 |  |  |  | O=C(O)CC(C1CCN(C(=O)CCCc2ccc3c(n2)NCCC3)CC1)C1CNc2ccccc2C1 (stereo not drawn) [Cpd 5, 1,2,3,4-Tetrahydro-β-[1-[1-oxo-4-(5,6,7,8-tetrahydro-1,8-naphthyridin-2-yl)butyl]-4-piperidinyl]-3-quinolinepropanoic acid] | 14.8 ± 0.68 | 0.261 ± 0.0569 | 0.0037 ± 0.0014
19 | 35.5 | 0.576 ± 0.149 | 0.083 ± 0.02 | O=C(O)CC(c1cnc2c(c1)CCCC2)C1CCN(C(=O)CCCc2ccc3c(n2)NCCC3)CC1 (single isomer, unassigned) [Cpd 58b, 5,6,7,8-Tetrahydro-β-[1-[1-oxo-4-(5,6,7,8-tetrahydro-1,8-naphthyridin-2-yl)butyl]-4-piperidinyl]-3-quinolinepropanoic acid] |  |  | 
20 | 25.4 | 0.775 | 0.281 | O=C(O)CC(c1ccc2c(c1)OCO2)C1CCN(C(=O)Cc2ccc3c(n2)NCCC3)CC1 (stereo not drawn) [Cpd 16, β-(1,3-benzodioxol-5-yl)-1-[(5,6,7,8-tetrahydro-1,8-naphthyridin-2-yl)acetyl]-4-piperidinepropanoic acid] |  |  | 

Row | SMILES | IC50 (GP IIb/IIIa; read-out: αIIbβ3 IC50) [µM] | IC50 (human purified αVβ5; read-out: αvβ5 IC50) [µM] | IC50 (Human αvβ3; read-out: αvβ3IC50) [µM] | IC50 (GP IIb/IIIa; αIIbβ3 IC50 (uM)) [µM] | IC50 (human purified αVβ5; αvβ5 IC50 (uM)) [µM] | IC50 (Human αvβ3; αvβ3IC50 (uM)) [µM]
21 | O=C(O)CC(CC1CCN(C(=O)CCc2ccc3c(n2)NCCC3)CC1)C1CNc2ccccc2C1 (single isomer, unassigned) [Cpd 19-1, 1,2,3,4-tetrahydro-β-[[1-[1-oxo-3-(5,6,7,8-tetrahydro-1,8-naphthyridin-2-yl)propyl]-4-piperidinyl]methyl]-3-quinolinepropanoic acid] | > 50 | 1.12 | 0.0367 |  |  | 
